In publication PMC7011792 (Journal of Enzyme Inhibition and Medicinal Chemistry, 2017):
Where two headings read alike, the source gives them in different places.

Key:
[1] = target: T1, AChE (EC 3.1.1.7) from electric eel (Electrophorus electricus, UniProt O42275); experiment: biochemical; conditions: for IC50: AChE from electric eel, mean ± SEM of three experiments; for Selectivity index (SI) = BuChE IC50/AChE IC50: eqBuChE IC50 / eeAChE IC50
T1 construct: purchased Sigma-Aldrich C3389
Protocol: (§1) AChE (EC 3.1.1.7, Type VI-S, from electric eel, C3389; from human, C1682) and BuChE (EC 3.1.1.8, from equine serum, C0663; from human, B4186), 5,5'-dithiobis (2-nitrobenzoic acid) (DTNB, D218200), acetylthiocholine iodide (ATC, A5751), and butyrylthiocholine iodide (BTC, B3253) were obtained from Sigma-Aldrich (St. Louis, MO).
(§2) The inhibitory effects of the synthesised compounds in this paper were evaluated according to our previously reported method. […] ATC/BTC iodide solution (0.075 M) was prepared in deionised water. […] The assay buffer was prepared as follows: potassium dihydrogen phosphate (1.36 g, 10 mmol) was dissolved in 100 ml of water. The pH of the solution was then adjusted to 8.0 ± 0.1 with KOH. Stock solutions of the test samples were dissolved in ethanol to give a final concentration of 10^−4 M when diluted to the final volume of 3.32 ml. For each compound, a dilution series of at least five different concentrations (normally 10^−5–10^−9 M) were prepared.
(§3) For measurement, a cuvette containing 3.0 ml of phosphate buffer, 100 µL of AChE or BuChE, 100 µL of DTNB, and 100 µL of the test compound solution were added in sequence. The reaction was initiated after adding 20 µL of ATC or BTC, and the solution was mixed immediately. […] For the reference value, 100 µL of water replaced the test compound solution. For the blank control, additionally 100 µL of water replaced the enzyme solution. The measurement for each concentration was assayed in triplicate. GraphPad Prism 5 was used for data processing. The inhibition curve was fitted by plotting percentage enzyme activity (100% for the reference) versus logarithm of test compound concentration. The IC50 values were calculated according to the curve, and the data were shown in mean ± SEM.
(§4) The inhibitory effects on ChEs of all the target compounds were determined according to Ellman’s method. AChE from electrophorus electricus (eeAChE) and BuChE from equine serum (eqBuChE) were used in the assays.

[2] = target: T2, BuChE (EC 3.1.1.8) from horse serum (Equus caballus, UniProt P81908); experiment: biochemical; format: biochemical; conditions: BuChE from horse serum; mean ± SEM of three experiments
T2 construct: purchased Sigma-Aldrich C0663; host or cells: equine serum
Protocol: as §1, §2, §3, §4

[3] = target: T3, AChE (EC 3.1.1.7) from human (Homo sapiens, UniProt P22303); experiment: Human AChE inhibition, Ellman's method; format: biochemical; conditions: for IC50: huAChE, mean ± SEM; for Selectivity index (SI) = BuChE IC50/AChE IC50, human enzymes: huBuChE IC50 / huAChE IC50
T3 construct: purchased Sigma-Aldrich C1682
Protocol: as §1
(§5) The inhibitory effects of the synthesised compounds in this paper were evaluated according to our previously reported method. Briefly, AChE/BuChE stock solution was diluted to give 2.5 units/mL (for eeAChE, eqBuChE, and huAChE) or 0.5 units/mL for huBuChE. ATC/BTC iodide solution (0.075 M) was prepared in deionised water. DTNB solution (0.01 M) was prepared using water containing 0.15% (w/v) sodium bicarbonate. The assay buffer was prepared as follows: potassium dihydrogen phosphate (1.36 g, 10 mmol) was dissolved in 100 ml of water. The pH of the solution was then adjusted to 8.0 ± 0.1 with KOH. Stock solutions of the test samples were dissolved in ethanol to give a final concentration of 10^−4 M when diluted to the final volume of 3.32 ml. For each compound, a dilution series of at least five different concentrations (normally 10^−5–10^−9 M) were prepared.
(§6) For measurement, a cuvette containing 3.0 ml of phosphate buffer, 100 µL of AChE or BuChE, 100 µL of DTNB, and 100 µL of the test compound solution were added in sequence. The reaction was initiated after adding 20 µL of ATC or BTC, and the solution was mixed immediately. Two minutes (eeAChE and eqBuChE) or 15 min (huAChE and huBuChE) after ATC or BTC addition, the absorption was measured at 25 °C (eeAChE and eqBuChE) or 37 °C (huAChE and huBuChE) at 412 nm, using a Shimadzu 160 spectrophotometer. For the reference value, 100 µL of water replaced the test compound solution. For the blank control, additionally 100 µL of water replaced the enzyme solution. The measurement for each concentration was assayed in triplicate. GraphPad Prism 5 was used for data processing. The inhibition curve was fitted by plotting percentage enzyme activity (100% for the reference) versus logarithm of test compound concentration. The IC50 values were calculated according to the curve, and the data were shown in mean ± SEM.

[4] = target: T4, BuChE (EC 3.1.1.8) from human (Homo sapiens, UniProt P06276); experiment: Human BuChE inhibition, Ellman's method; format: biochemical; conditions: huBuChE; mean ± SEM
T4 construct: purchased Sigma-Aldrich B4186
Protocol: as §1, §5
as §6, with “The inhibition curve was fitted by plotting percentage enzyme activity (100% for the reference) versus logarithm of test compound concentration.” left out

Aβ1–42 = target: T5, Aβ1–42 (Homo sapiens, UniProt P05067); experiment: Inhibition of self-induced Aβ1–42 aggregation (Thioflavin T assay); format: biochemical; conditions: compound 25 μM, 24 h, read-out: Inhibitory rate on self-induced Aβ1-42 aggregation
T5 construct: aliquots of 2.0 µL of Aβ1–42 (AS-64129–05 Anaspec Inc.); purchased Anaspec Inc. AS-64129–05
Protocol: Inhibitory effects of the compounds on self-induced Aβ1–42 aggregation were evaluated using a Thioflavin T (ThT)-(T3516, Sigma-Aldrich, St. Louis, MO) binding assay according to the previously reported method. […] The Aβ1–42 and the test sample solutions were incubated for 24 h at the room temperature.
The inhibitory rate of Aβ1–42 self-induced aggregation was calculated according to the following equation: (1-IFi/IFc) × 100%. IFi and IFc were the fluorescence intensities in the presence and absence of inhibitors, respectively, after subtracting the background fluorescence of the 5 mM Thioflavin T solution. Each measurement was repeated in triplicate. The inhibitory rate of the test compound was shown in mean ± SD.

ICR mice [5] = conditions: for ALT (U/L) / AST (U/L): mice serum, n = 6
Protocol: The activity of AST and ALT, two indicators of liver damage, was determined using corresponding assay kit (EF551 and EF550 for ALT, EH027, and EF548 for AST, Wako, Japan).
One hour after the collection of retrobulbar blood, mice were sacrificed and livers were harvested for morphological studies by using immunohistochemical method. Two 3 mm sections of each liver extending from the hilus to the margin of the left lateral lobe were isolated by Ultra-Thin Semiautomatic Microtome (Leica RM2245, Germany) and immediately placed in 10% buffered formaldehyde, fixed for two days, and embedded together in one paraffin block by using Paraffin Embedding Station (Leica EG1150H, Germany). Subsequently, 5 µm sections were prepared from these paraffin blocks. They were deparaffinated and stained with hematoxylin and eosin or by means of the periodic acid-Schiff procedure for glycogen.

ICR mice [6] = experiment: Morris water maze test, scopolamine-induced cognitive impairment; conditions: for Latency to target (second), Day 5 / Latency to target (second), Day 6 / Latency to target (second), Day 7 / Latency to target (second), Day 8 / Latency to target (second), Day 9: learning and training, oral, plus scopolamine; for Latency to target (second), Day 5 / Latency to target (second), Day 6 / Latency to target (second), Day 7 / Latency to target (second), Day 8 / Latency to target (second), Day 9 / Latency to Target: ICR mice; for Latency to Target: probe trial, oral administration plus scopolamine (1 mg/kg ip), mean ± SEM, n = 6; for trajectory in the Morris water maze test: scopolamine-impaired ICR mice, compared to tacrine group
[7] = 22 h after ig administration, 151.5 µmol/kg
[8] = 36 h after ig administration, 151.5 µmol/kg

T2 sequence (P81908 whole entry): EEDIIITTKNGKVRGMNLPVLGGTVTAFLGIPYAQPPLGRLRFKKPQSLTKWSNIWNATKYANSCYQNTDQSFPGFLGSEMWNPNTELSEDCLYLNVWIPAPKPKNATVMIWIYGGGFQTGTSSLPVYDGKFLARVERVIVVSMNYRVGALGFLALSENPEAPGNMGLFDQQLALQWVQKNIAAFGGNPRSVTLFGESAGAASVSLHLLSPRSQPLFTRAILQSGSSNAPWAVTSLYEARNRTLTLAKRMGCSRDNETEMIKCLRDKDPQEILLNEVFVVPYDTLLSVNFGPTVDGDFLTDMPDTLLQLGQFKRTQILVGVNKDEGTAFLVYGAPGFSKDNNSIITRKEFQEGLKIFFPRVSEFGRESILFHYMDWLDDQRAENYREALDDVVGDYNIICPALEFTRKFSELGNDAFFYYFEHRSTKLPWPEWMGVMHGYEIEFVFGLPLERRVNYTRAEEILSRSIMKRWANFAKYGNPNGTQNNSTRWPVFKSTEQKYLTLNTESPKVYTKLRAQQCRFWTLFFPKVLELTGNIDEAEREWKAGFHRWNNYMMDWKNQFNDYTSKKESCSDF
T5 sequence (P05067 672-713): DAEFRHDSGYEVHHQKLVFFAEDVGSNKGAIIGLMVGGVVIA
T3 sequence (P22303 32-614): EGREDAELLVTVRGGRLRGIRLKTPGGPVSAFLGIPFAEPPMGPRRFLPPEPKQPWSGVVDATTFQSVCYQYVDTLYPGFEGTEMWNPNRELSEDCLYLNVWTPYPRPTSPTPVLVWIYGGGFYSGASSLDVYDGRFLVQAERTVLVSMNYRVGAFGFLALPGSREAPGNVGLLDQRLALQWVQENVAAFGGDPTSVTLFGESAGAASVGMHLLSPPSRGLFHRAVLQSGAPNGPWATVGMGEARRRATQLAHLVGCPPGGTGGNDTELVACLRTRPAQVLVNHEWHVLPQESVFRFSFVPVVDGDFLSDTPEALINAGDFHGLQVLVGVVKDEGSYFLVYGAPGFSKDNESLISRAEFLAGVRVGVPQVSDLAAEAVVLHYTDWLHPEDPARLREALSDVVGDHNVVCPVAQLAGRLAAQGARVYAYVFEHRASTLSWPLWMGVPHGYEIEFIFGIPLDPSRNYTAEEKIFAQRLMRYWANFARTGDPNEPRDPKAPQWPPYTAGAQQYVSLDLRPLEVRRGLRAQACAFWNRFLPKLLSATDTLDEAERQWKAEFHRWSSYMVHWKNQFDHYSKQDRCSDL
T1 sequence (O42275 24-633): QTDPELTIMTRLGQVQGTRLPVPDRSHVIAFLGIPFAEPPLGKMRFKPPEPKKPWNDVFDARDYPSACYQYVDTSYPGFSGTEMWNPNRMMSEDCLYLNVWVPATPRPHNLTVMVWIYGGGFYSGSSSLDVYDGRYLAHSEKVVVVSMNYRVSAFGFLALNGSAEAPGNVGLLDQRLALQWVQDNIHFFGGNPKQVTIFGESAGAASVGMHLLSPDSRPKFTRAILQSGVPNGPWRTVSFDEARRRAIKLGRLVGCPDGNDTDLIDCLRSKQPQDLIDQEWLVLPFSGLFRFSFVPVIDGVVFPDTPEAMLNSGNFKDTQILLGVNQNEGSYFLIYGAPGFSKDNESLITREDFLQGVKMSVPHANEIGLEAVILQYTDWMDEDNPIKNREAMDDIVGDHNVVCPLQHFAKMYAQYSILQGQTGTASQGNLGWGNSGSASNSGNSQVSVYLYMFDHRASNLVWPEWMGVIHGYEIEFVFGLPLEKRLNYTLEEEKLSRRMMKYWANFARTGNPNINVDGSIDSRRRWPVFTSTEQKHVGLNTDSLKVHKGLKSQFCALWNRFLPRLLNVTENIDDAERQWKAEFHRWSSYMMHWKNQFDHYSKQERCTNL
T4 sequence (P06276 29-602): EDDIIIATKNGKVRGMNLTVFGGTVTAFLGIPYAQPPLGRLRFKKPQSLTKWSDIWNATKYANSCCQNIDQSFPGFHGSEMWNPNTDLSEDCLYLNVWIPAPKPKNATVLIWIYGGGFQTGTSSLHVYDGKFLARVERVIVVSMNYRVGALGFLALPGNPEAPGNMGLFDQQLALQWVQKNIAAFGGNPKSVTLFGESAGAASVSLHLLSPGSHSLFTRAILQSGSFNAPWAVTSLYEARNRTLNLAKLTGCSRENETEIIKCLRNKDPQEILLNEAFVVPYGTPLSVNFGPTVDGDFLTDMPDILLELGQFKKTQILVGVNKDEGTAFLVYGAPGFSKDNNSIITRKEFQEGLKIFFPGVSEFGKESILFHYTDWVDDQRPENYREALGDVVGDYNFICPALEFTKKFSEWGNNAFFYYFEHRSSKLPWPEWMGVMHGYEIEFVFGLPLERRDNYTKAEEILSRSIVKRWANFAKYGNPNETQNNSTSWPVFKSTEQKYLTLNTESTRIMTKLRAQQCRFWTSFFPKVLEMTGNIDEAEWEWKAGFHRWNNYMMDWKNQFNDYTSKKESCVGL

Row | SMILES | IC50 [1] [nM] | Selectivity index (SI) = BuChE IC50/AChE IC50 [1] | IC50 [2] [nM] | IC50 [3] [nM] | Selectivity index (SI) = BuChE IC50/AChE IC50, human enzymes [3] | IC50 [4] [nM] | inhibition at 25 µM (Aβ1–42) [%] | morphologic changes in liver (ICR mice [5]; mouse, in vivo) | Latency to target (second), Day 5 (ICR mice [6]) [s] | Latency to target (second), Day 6 (ICR mice [6]) [s] | Latency to target (second), Day 7 (ICR mice [6]) [s] | Latency to target (second), Day 8 (ICR mice [6]) [s] | Latency to target (second), Day 9 (ICR mice [6]) [s] | Latency to Target (ICR mice [6]) [s] | trajectory in the Morris water maze test (ICR mice [6]) | also measured
1 | O=C(/C=C/c1ccc(Cl)cc1)NCCCCCCNc1c2c(nc3ccccc13)CCCC2 [Compound 27, (E)-3-(4-chlorophenyl)-N-(6-((1,2,3,4-tetrahydroacridin-9-yl)amino)hexyl)acrylamide] | 6.9 ± 1.2 | 1.9 | 12.9 ± 1.7 | 16.5 | 0.3 | 5.7 | 42.2 | did not cause remarkable morphologic changes in liver | 57.1 ± 6.8 | 41.5 ± 5.0 | 39.2 ± 4.3 | 27.6 ± 2.5 | 28.3 ± 1.7 | 25.6 ± 1.8 | much shortened distances as compared to tacrine group | 
2 | COc1ccc(/C=C/C(=O)NCCCCCCNc2c3c(nc4ccccc24)CCCC3)cc1 [Compound 30, (E)-3-(4-methoxyphenyl)-N-(6-((1,2,3,4-tetrahydroacridin-9-yl)amino)hexyl)acrylamide] | 3.7 ± 1.5 | 6.1 | 22.5 ± 5.9 | 15.3 | 0.5 | 8 | 34.6 | did not cause remarkable morphologic changes in liver | 59.1 ± 7.0 | 47.3 ± 6.6 | 46.4 ± 6.8 | 32.4 ± 5.3 | 33.2 ± 4.0 | 29.4 ± 1.9 | much shortened distances as compared to tacrine group | 
3 | COc1cc(/C=C/C(=O)NCCCCCCNc2c3c(nc4ccccc24)CCCC3)ccc1OCc1ccc(C)cc1 [Compound 38] | 128 ± 13.3 | 0.5 | 58.4 ± 7.5 |  |  |  |  |  |  |  |  |  |  |  |  | 
4 | Oc1ccc(/C=C/c2cc(O)cc(O)c2)cc1 [Resveratrol, reference compound] |  |  |  |  |  |  | 30.4 |  |  |  |  |  |  |  |  | 
5 | Nc1c2c(nc3ccccc13)CCCC2 [Tacrine, reference compound] |  |  |  |  |  |  |  |  | 69.2 ± 11.0 | 58.3 ± 7.9 | 50.3 ± 6.3 | 37.1 ± 5.1 | 38.2 ± 2.6 | 34.5 ± 1.3 |  | ALT (U/L) (ICR mice [5]; 8 h after ig administration, 151.5 µmol/kg (tacrine 30 mg/kg, equimolar test compounds)): 38.0 ± 3.5 U/L; AST (U/L) (ICR mice [5]; 8 h after ig administration, 151.5 µmol/kg): 134.5 ± 9.9 U/L; ALT (U/L) (ICR mice [5]; [7]): 38.7 ± 5.2 U/L; AST (U/L) (ICR mice [5]; [7]): 125.8 ± 16.2 U/L; morphologic changes in liver (ICR mice [5]; 36 h after administration, HE staining, compared to control group): did not cause remarkable morphologic changes in liver; ALT (U/L) (ICR mice [5]; [8]): 40.9 ± 3.5 U/L; AST (U/L) (ICR mice [5]; [8]): 138.7 ± 8.5 U/L
